# ChEMBL document CHEMBL1201862, “PubChem BioAssay data set” (2004)
#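 1) Cells in 96-well plates. 2) Compound, 48 h, 5 concentrations. 3) Linear interpolation between surrounding doses. 4) Unreached endpoint = highest concentration. GI50 = concentration required for 50% inhibition of growth.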 The source made the active and inactive calls. Rule as the data show it: active = GI50 up to about 1.1 µM and inactive = higher. Where a SMILES comes first, the peptide text is derived from it. The star is where a group is joined. Cbz = O=C(OCc1ccccc1)*
# Legend:
# Test in all cases: inhibition of tumour cell growth, NCI panel, 48 h
# [1] = test system: SK-MEL-2
# [2] = test system: MDA-N
# [3] = test system: A549
# [4] = test system: SR
# [5] = test system: NCI-H23
# [6] = test system: SK-MEL-5
# [7] = test system: SK-OV-3
# [8] = test system: TK-10
# [9] = test system: BT-549
# [10] = test system: HCT-15
# [11] = test system: CCRF-CEM
# [12] = test system: MOLT-4
# [13] = test system: SF-268
# [14] = test system: OVCAR-4
# [15] = test system: SK-MEL-28
# [16] = test system: Malme-3M
# [17] = test system: HCT-116
# [18] = test system: SNB-19
# [19] = test system: NCI-H226
# [20] = test system: NCI-H460
Structure (SMILES),GI50 [1],GI50 [2],GI50 [3],GI50 [4],GI50 [5],GI50 [6],GI50 [7],GI50 [8],GI50 [9],GI50 [10],GI50 [11],GI50 [12],GI50 [13],GI50 [14],GI50 [15],GI50 [16],GI50 [17],GI50 [18],GI50 [19],GI50 [20]
CC(=O)n1[nH]c(=O)n(-c2ccccc2)c1=O,> 100 µM (inactive),> 100 µM (inactive),> 100 µM (inactive),> 100 µM (inactive),> 100 µM (inactive),> 100 µM (inactive),> 100 µM (inactive),> 100 µM (inactive),> 100 µM (inactive),> 100 µM,> 100 µM (inactive),> 100 µM (inactive),> 100 µM (inactive),> 100 µM (inactive),> 100 µM (inactive),> 100 µM (inactive),> 100 µM (inactive),> 100 µM (inactive),> 100 µM (inactive),> 100 µM (inactive)
COc1ccc(/C=C(\Cl)c2ccc(OC)c(OC)c2)cc1OC,> 100 µM (inactive),> 100 µM (inactive),> 100 µM (inactive),> 100 µM (inactive),> 100 µM (inactive),> 100 µM (inactive),> 100 µM (inactive),> 100 µM (inactive),> 100 µM (inactive),> 100 µM,> 100 µM (inactive),> 100 µM (inactive),> 100 µM (inactive),> 67.6 µM (inactive),> 100 µM (inactive),> 100 µM (inactive),> 100 µM (inactive),> 100 µM (inactive),> 100 µM (inactive),> 100 µM (inactive)
Nc1ccc(C(=O)CC(N)C(=O)O)cc1O (stereo not given),> 100 µM (inactive),> 100 µM (inactive),> 100 µM (inactive),> 100 µM (inactive),> 100 µM (inactive),> 100 µM (inactive),31.9 µM (inactive),> 100 µM (inactive),> 100 µM (inactive),> 100 µM,> 100 µM (inactive),> 100 µM (inactive),> 100 µM (inactive),> 100 µM (inactive),> 100 µM (inactive),> 100 µM (inactive),> 100 µM (inactive),> 100 µM (inactive),> 100 µM (inactive),> 100 µM (inactive)
CCN=C=NCCCN(C)C,> 100 µM (inactive),> 100 µM (inactive),> 100 µM (inactive),> 100 µM (inactive),> 100 µM (inactive),> 100 µM (inactive),> 100 µM (inactive),> 100 µM (inactive),> 100 µM (inactive),> 100 µM,> 100 µM (inactive),> 100 µM (inactive),> 100 µM (inactive),> 100 µM (inactive),> 100 µM (inactive),> 100 µM (inactive),> 100 µM (inactive),> 100 µM (inactive),> 100 µM (inactive),> 100 µM (inactive)
Cc1c(CNc2ccc(Cl)c(Cl)c2Cl)cnc2nc(N)nc(N)c12,27.1 µM (inactive),0.0515 µM (active),0.0352 µM (active),0.357 µM (active),0.255 µM (active),0.263 µM (active),> 35.6 µM (inactive),14.1 µM (inactive),24.9 µM (inactive),0.184 µM,0.125 µM (active),0.164 µM (active),0.404 µM (active),14.5 µM (inactive),5.33 µM (inactive),3.12 µM (inactive),0.0208 µM (active),14.6 µM (inactive),19.5 µM (inactive),0.0615 µM (active)
CCOC(=O)CCC(NC(=O)C(Cc1ccccc1)NC(=O)OCc1ccccc1)C(=O)OCC (stereo not drawn) (Cbz-Phe-Glu(OEt)-OEt; configuration not given here),22.3 µM (inactive),17.2 µM (inactive),18.8 µM (inactive),27 µM (inactive),17 µM (inactive),15.5 µM (inactive),16.6 µM (inactive),19.4 µM (inactive),> 100 µM (inactive),20.1 µM,31.3 µM (inactive),30.2 µM (inactive),16.2 µM (inactive),17.7 µM (inactive),17.9 µM (inactive),17.4 µM (inactive),18 µM (inactive),19.7 µM (inactive),16.6 µM (inactive),20.5 µM (inactive)
